Laboratory results published in patent US20260118363A1, “Application of GLUN2A and NMDA Receptor Containing GLUN2A as Targets in Screening Drugs for Treating Depression” (Synphatec (Shanghai) Biopharmaceutical Technology Co., Ltd., priority 2021, published 2026).

Experiments:
mice [1] = assay: Forced swim test; assay type: in vivo, mouse; settings: for immobility time in the forced swim test: 10 mg/kg intraperitoneal injection, 1 hour after injection
Procedure: The mice were placed in a transparent organic glass water tank with a diameter of 25 cm and a height of 30 cm, which was filled with 15 cm high of water with a temperature of 23-25° C., and the total recording time was 6 min. The immobility time of the mice within the latter 4 min was analysed, reflecting the degree of helplessness and despair of the mice.
(§1) MK-801 at a dose of 0.1 mg/kg, ketamine at a dose of 10 mg/kg, and Ro 25-6981 at a dose of 10 mg/kg were administrated to mice by intraperitoneal injection. Behavioural experiments such as subsequent open field tests, tail suspension tests, and forced swim tests were carried out 1 hour post intraperitoneal injection.

mice [2] = assay: Tail suspension test; assay type: in vivo, mouse; settings: 10 mg/kg
Procedure: After fixing the mice at about 1.5 cm from the distal end of the tail, the mice were suspended with their heads facing downwards at a distance of about 35 cm from the ground. The total duration of recording was 6 min, and the percentage of time that the mice remained stationary during the latter 4 min was analysed to reflect the degree of desperation of mice.
as §1

[3] = tested on: excitatory neurons in the hippocampus; assay: Whole cell recording of intrinsic excitability in hippocampal slices; assay type: cell-based, mouse; settings: for excitability of hippocampal neurons (number of action potentials): MK-801 10 µM, ketamine 20 µM
Procedure: The beaker containing choline chloride slice solution was placed in an ice box and continuously introduced with a mixture of 95% O2 and 5% CO2 to saturate it with oxygen for use. After anesthetized with isoflurane, mice aged 4-8 weeks were quickly decapitated and euthanized. After exposing the skull and peeling off the dura mater, the whole brain was placed in a pre-cooled choline chloride solution for about 1 minute to reduce brain temperature. The whole brain was then taken out and the bilateral hippocampus were peeled off and attached to the surface of the agar block with one end of the hippocampus close to one of the edges of the agar block, after which the hippocampus-attached agar block was glued with 502 adhesive to a removable tray of the oscillating slicer, which was secured in the slicing tank of the oscillating slicer filled with pre-cooled choline chloride slicing solution. The oscillating slicer blade was adjusted to the horizontal position, then start the slicer to begin slice. The speed of the oscillating slicer was set to about 0.2 mm/s, and the slice thickness was 400 μm. The sliced hippocampus was carefully placed into ACSF preheated in water bath at 33-34° C. using a rubber hose and incubated for 30-60 minutes with a continuous introduction of a gas mixture of 95% O2 and 5% CO2. After incubation at 33-34° C., the vessel containing the brain slices was removed from the water bath and incubated at room temperature for about 30 min with continuous aeration and then electrophysiological recordings were performed. Hippocampal slices can be used for about 6 hours under room temperature with continuous aeration.
Hippocampal slices after incubation were carefully transferred to the bath of the microscope carrier stage with a pipette, and were held in place by pressing using an anchor attached to parallel nylon filaments, using a peristaltic pump to keep the bath continuously pumped with oxygen-saturated ACSF, and the temperature was maintained at room temperature of about 23-26° C. The CA1 region of the hippocampus was firstly localised at low magnification (10×), then switching to high magnification (40×) to locate CA1, after which the field of view was switched to the monitor to look for pyramidal neurons with good condition in hippocampal CA1. […] In the experiment, a P-1000 electrode drawing instrument was used to draw glass electrodes using a three-step method, making the impedance of the electrode into the liquid 4-6 MS2. Prior to electrode into the liquid, a 10 ml syringe was used to apply about 2 ml or so of positive pressure into the electrode to prevent clogging of the electrode tip, and the baseline of the recording software was reset to zero using the Multiple 700B. A microelectrode operator was applied to slowly approach the electrode to the surface of the cell. When the electrode touched the surface of the cell, a “dimple-shaped” depression would appear. At this time, positive pressure would be immediately released and appropriate negative pressure would be applied to form a seal between the electrode and the cell. […] After stabilizing for about 30-60 seconds, negative pressure was applied to break the membrane, and at this moment, a whole cell mode was formed. In current clamp mode, a depolarized step current stimulation of 10-330 pA was applied, with a step current of 20 pA. The intrinsic excitability of the neuron was evaluated by analyzing the number of action potentials generated by the neuron.

[4] = GluN2A KO mice, vs control group
[5] = hippocampal slices from WT mice, Ro 25-6981 3 M (1-2 hours incubation), same depolarizing current stimulation
[6] = hippocampal slices from GluN2A KO mice

SMILES	immobility time in the forced swim test (mice [1]; [4])	immobility time in the forced swim test (mice [1]; WT mice, vs control (saline))	immobility time in tail suspension test (mice [2]; GluN2A KO mice)	immobility time in tail suspension test (mice [2]; WT mice, vs control (Saline) group)	excitability of hippocampal neurons (number of action potentials) [3, 5]	excitability of hippocampal neurons (number of action potentials) [3, 6]	immobility time in forced swimming (mice [1]; GluN2A conditional knockout mice (tamoxifen-induced, adult), after treatment with MK-801 (FIG. 5))	rapid antidepressant like behavior (immobility time) (mice [1]; WT mice with GluN2B selectively inhibited by Ro 25-6981 plus MK-801, FIG. 11: tail suspension and forced swim tests)	immobility time in forced swimming (mice [1]; control mice (UBC-CreERT/Grin2a flox/flox without GluN2A knockout), after administration of MK-801 (FIG. 5))	intrinsic excitability of excitatory neurons in the hippocampus ([3]; acute hippocampal slices of WT mice incubated with Ro 25-6981 while adding MK-801)
C[C@@H](CN1CCC(Cc2ccccc2)CC1)[C@@H](O)c1ccc(O)cc1 [Ro 25-6981]	significantly reduced	significant decrease	significantly reduced	significant decrease	did not change	–	–	–	–	–
CNC1(c2ccccc2Cl)CCCCC1=O (centres unmarked) [ketamine]	comparable	significantly reduced	–	–	significantly increased	blocked the increase in excitability	–	–	–	–
C[C@]12N[C@H](Cc3ccccc31)c1ccccc12 [MK-801]	comparable	significantly reduced	–	–	significantly increased	blocked the increase in excitability	not altered	can still induce rapid antidepressant like behavior	significantly reduced	still induced an increase
